Experimental data reported in ChEMBL document CHEMBL1123048 (J Med Chem, 1985).
≈ marks a conversion by molar mass, not a printed value.

Key:
Adenosine receptor A1 [1] = target: T1, Adenosine receptor A1 (Rattus norvegicus, UniProt P25099); test: Binding affinity towards adenosine A1 receptor in rat cerebral cortical membranes with 1 nM [3H]cyclohexyladenosine; format: cell membranes
T1 sequence (P25099 whole entry): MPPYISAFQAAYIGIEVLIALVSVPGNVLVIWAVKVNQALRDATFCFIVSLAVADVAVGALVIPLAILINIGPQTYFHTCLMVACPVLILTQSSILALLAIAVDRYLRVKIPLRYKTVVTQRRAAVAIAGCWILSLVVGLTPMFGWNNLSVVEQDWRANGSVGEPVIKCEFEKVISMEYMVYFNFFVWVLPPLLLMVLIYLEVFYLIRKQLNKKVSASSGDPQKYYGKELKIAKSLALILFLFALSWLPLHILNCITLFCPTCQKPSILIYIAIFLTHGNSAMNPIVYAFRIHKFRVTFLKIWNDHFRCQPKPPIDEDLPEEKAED

[2] = Solubility in 0.1 M sodium phosphate, and at pH 7.2; format: physicochemical; conditions: 0.1 M sodium phosphate buffer
Adenosine receptor A1 [3] = target: T1, Adenosine receptor A1
Description: Binding affinity towards adenosine A1 receptor in rat cerebral cortical membranes by [3H]cyclohexyladenosine displacement.

[4] = target: Adenosine A2 receptor (Cavia porcellus)
[5] = target: Adenosine A2 receptor (Cavia porcellus); test: Binding affinity against A2 adenosine receptor in [3H]adenine-labeled guinea pig cerebral cortical slices

SMILES	Ki (Adenosine receptor A1 [3]) [µM]	Ki [4] [µM]	further results
CCCn1c(=O)c2[nH]c(-c3ccc(OCC(N)=O)cc3)nc2n(CCC)c1=O			Ki (Adenosine receptor A1 [1]): 0.006 µM; solubility [2]: 26 µM (≈ 10 µg/mL)
CCCn1c(=O)c2nc(-c3ccc(O)cc3)[nH]c2n(CCC)c1=O			solubility [2]: 3.2 µM (≈ 1.05 µg/mL)
Cn1c(=O)c2nc(-c3ccc(OCC(=O)O)cc3)[nH]c2n(C)c1=O	0.5	0.43	
CCCn1c(=O)c2nc(-c3ccc(OCC(=O)NCCNC(=O)CCCCC4SCC5NC(=O)NC54)cc3)[nH]c2n(CCC)c1=O (stereo not drawn)	0.054		Ki [5]: 0.18 µM
CCCn1c(=O)c2nc(-c3ccc(OCC(=O)N(C)C)cc3)[nH]c2n(CCC)c1=O	0.032		
CCCn1c(=O)c2nc(-c3ccc(OCC(=O)NCCCCCCCCN)cc3)[nH]c2n(CCC)c1=O	0.005	0.47	
CCCn1c(=O)c2nc(-c3ccc(OCC(=O)OCC)cc3)[nH]c2n(CCC)c1=O		0.03	
CCCn1c(=O)c2nc(-c3ccc(OCC(=O)Nc4ccc(C)cc4)cc3)[nH]c2n(CCC)c1=O	0.036	0.75	
CCCn1c(=O)c2[nH]c(-c3ccc(OCC(=O)NCCN)cc3)nc2n(CCC)c1=O [XANTHINE AMINE CONGENER]			solubility [2]: 90 µM (≈ 38.6 µg/mL)
Cc1ccc(NC(=O)COc2ccc(-c3nc4c(=O)n(C)c(=O)n(C)c4[nH]3)cc2)cc1	0.026		

The next lines start with results.

Ki (Adenosine receptor A1 [3]) [µM]	Ki [4] [µM]	SMILES	further results
0.0041	0.062	CCCn1c(=O)c2nc(-c3ccc(OCC(=O)Nc4ccc(O)cc4)cc3)[nH]c2n(CCC)c1=O	
0.096		CCCn1c(=O)c2nc(-c3ccc(OCC(=O)N(C(=O)NC4CCCCC4)C4CCCCC4)cc3)[nH]c2n(CCC)c1=O	
	0.04	CCCn1c(=O)c2nc(-c3ccc(OCC(=O)ON4C(=O)CCC4=O)cc3)[nH]c2n(CCC)c1=O	
0.0022	0.32	CC(=O)O.CCCn1c(=O)c2nc(-c3ccc(OCC(=O)NCCN(CC)Cc4ccc(O)cc4)cc3)[nH]c2n(CCC)c1=O	
0.059		CCCn1c(=O)c2nc(-c3ccc(OCC(=O)NN)cc3)[nH]c2n(CCC)c1=O	
0.024		CCCn1c(=O)c2nc(-c3ccc(OCC(=O)NCCNC(C)=O)cc3)[nH]c2n(CCC)c1=O	
